These results are taken from patent US20090169521A1, “Vascularized cardiac tissue and methods of producing and using same” (Technion Research & Development Foundation Ltd., priority 2007, published 2009).

“Also recorded” adds a separate entry of the source.

The subject of test [1] is spontaneously contracting engineered cardiac tissue (gap junctions between hESC-CM). Briefly: Laser confocal Ca2+ imaging (Fluo-4) of impulse propagation. The format is cell-based, human. The note with it: 1 mM, calcium imaging. The protocol: Laser scanning confocal Ca-imaging: Scaffolds were loaded with fluo-4 Ca AM (Molecular Probes) indicator to visualize free Ca^+2 levels. To this purpose, 5 mM stock solution of fluo-4 AM in DMSO was, diluted in standard hESC medium, at dilution of 1:1000 giving a final concentration of 5 μM. The non-ionic detergent Pluronic F-127 (Molecular Probes) was used to assist dispersion of the nonpolar fluo-4 AM ester in the aqueous media. Scaffolds were incubated for 45 minutes at 37° C. Following incubation the scaffolds were washed (×3) with indicator-free control tyrode solution removing any dye non-specifically associated with the cell surface. Afterwards the scaffolds were further incubated for 15 minutes allowing complete de-esterification of intracellular AM esters (according to manufacture's instructions). […]
Since the ultrastructural characterization clearly indicated the presence of gap junctions between adjacent hESC-CM (FIG. 7D), the present inventors sought to determine whether these formed gap junctions mediate impulse conduction between the hESC-CM and therefore allow synchronous contraction. […] The beating frequency of the spontaneously contracting cardiac tissue was evaluated following application of different pharmacological agents. […]

Test [2] concerns spontaneously contracting engineered cardiac tissue. The test is described as follows: Beating frequency of engineered cardiac tissue after chronotropic agents. The format is cell-based, human. Conditions: 1 μM, n=4; before application 1.6±0.3 Hz (isoproterenol), 1.7±0.2 Hz (carbamylcholine). The protocol:
Since the ultrastructural characterization clearly indicated the presence of gap junctions between adjacent hESC-CM (FIG. 7D), the present inventors sought to determine whether these formed gap junctions mediate impulse conduction between the hESC-CM and therefore allow synchronous contraction. The gap junction uncoupler, 1-heptanol (1 mM), was applied to the spontaneously contracting engineered cardiac tissue. […] The beating frequency of the spontaneously contracting cardiac tissue was evaluated following application of different pharmacological agents. Appropriate positive and negative chronotropic responses were observed following application of the β-agonist, isoproterenol (1 μM) and the muscarinic agonist—carbamylcholine (1 μM). Thus, isoproterenol increased the beating frequency of the engineered cardiac issue from 1.6±0.3 Hz to 2.1±0.3 Hz (p<0.05, n=4), while carbamylcholine decreased the beating frequency from 1.7±0.2 Hz to 1.4±0.1 Hz (p=0.055, n=4).

As for `CCCCCCCO` [1-heptanol], in test [1], the impulse propagation entry was “complete inhibition; also recorded: completely inhibited”.
As for `C[N+](C)(C)CCOC(N)=O.[Cl-]` [carbamylcholine], the “beating frequency after application of the agent” value in test [2] was 1.4±0.1 Hz.
The same measure, in the same setting: the figure for `CC(C)NCC(O)c1ccc(O)c(O)c1` (stereo not drawn) [isoproterenol] is 2.1±0.3 Hz.
